Earlier results on four compounds are cited in patent US20030003131A1, “Method for manufacture of free-flowing powder containing water-dispersible sterols” (priority 2001, published 2003).

Data set [1] relates to cholesterol absorption. The following applies: oil-free delivery system with emulsifier.
Data set [2] deals with cholesterol absorption.
Another data set relates to LDL cholesterol. The following applies: 2.8 g sitostanol/day given as sitostanol ester in margarine.

Where two headings read alike, the source gives them in different places.

In the case of `CC[C@H](CC[C@@H](C)[C@H]1CC[C@H]2[C@@H]3CC[C@H]4C[C@@H](O)CC[C@]4(C)[C@H]3CC[C@]12C)C(C)C` [sitostanol], the “reduction of serum cholesterol” value in the data set on serum cholesterol (1.5 g/day, subjects with severe hypercholesterolemia) is listed as 15%. Further, the “effect on serum cholesterol” value in the data set on serum cholesterol (3 g/day, subjects with moderate hypercholesterolemia) was “no effect”. Besides, the “reduction of cholesterol absorption” value in the data set on cholesterol absorption [1] is ≤ 37%.
For `CC[C@H](CC[C@@H](C)[C@H]1CC[C@H]2[C@@H]3CC=C4C[C@@H](O)CC[C@]4(C)[C@H]3CC[C@]12C)C(C)C` [sitosterol], the “decrease of serum cholesterol levels” value in the data set with serum cholesterol (3-9 g/day of powdered sitosterol, dose-response study) was 12%. In the data set with serum cholesterol (doses of 5-18 g sitosterol/day), the “reduction of serum cholesterol” value is 16-20%.
On to neomycin, for which, in the data set on cholesterol absorption [2] (orally administered), the “effect on cholesterol absorption” value is given as “reduces cholesterol absorption effectively”.
As to sitostanol ester, the “less effective at reducing cholesterol absorption compared to the unesterified sterol” value with cholesterol absorption [2] (humans, ester dissolved in dietary fat) is listed as 21%. Also, in the data set with LDL cholesterol, the “reduction of LDL cholesterol” value was 16%.
